Data as given in the SangsterLogP compilation.

Assay: method code SF-AS, from PMID: 8295915

Row | SMILES | logP
1 | CCNc1nc(C)c(C(=O)CCN2CCOCC2)s1 | 1.43
2 | Cc1nc(N)sc1C(=O)CCN1CCCCC1 | 2.13
3 | CNc1nc(C)c(C(=O)CCN2CCCCC2)s1 | 2.21
4 | CNc1nc(C)c(C(=O)CCN2CCCC2)s1 | 1.86
5 | CNc1nc(C)c(C(=O)CCN2CCOCC2)s1 | 0.95
6 | Cc1nc(N)sc1C(=O)CCN1CCCC1 | 1.74
7 | Cc1nc(N)sc1C(=O)CCN1CCOCC1 | 0.82
8 | Cc1nc(N)sc1C(=O)CCN(C)C | 1.47

The next lines start with the values.

Row | logP | SMILES
9 | 1.76 | CCN(CC)CCC(=O)c1sc(N)nc1C
10 | 1.58 | CNc1nc(C)c(C(=O)CCN(C)C)s1
11 | 2.21 | CCNc1nc(C)c(C(=O)CCN(C)C)s1
12 | 2.66 | CCNc1nc(C)c(C(=O)CCN2CCCCC2)s1
13 | 2.72 | CCNc1nc(C)c(C(=O)CCN(CC)CC)s1
